Assays:
rats [1] = experiment: Plasma creatinine as measure of renal function (Example 7); format: in vivo; details: rat plasma, 8 mg/kg cisplatin, 9.9 mg/kg carboplatin, 19.6 mg/kg S-9168
Protocol: Methods. Three groups of two rats were cannulated in the jugular vein and allowed to recover for approximately 24 hours. […] Blood samples (1.8 ml) were taken via the jugular vein canal before treatment (day 0) and 1, 2, 3, and 4 days after treatment, spun at 8000 rpm. for 2 minutes, and the plasma was removed. Creatinine assays were performed using the Sigma Creatinine Kit (Sigma Diagnostics Co., St. Louis, Mo.; Cat. No. 555-A) according to the Sigma creatinine assay protocol, in which the difference in color intensity at 500 nm of a sample containing creatinine and alkaline picrate solution before and after acidification is measured. The limit of linearity for the UV spectrophotometer was established by using the calibration curve procedure in the Sigma creatinine assay protocol.
(§1) Methods. Four groups of eight rats were cannulated as described in Example 6. […] The fourth group of rats was dosed with saline. Two rats in each group were sacrificed on days 4, 6, and 8 after treatment and 2 ml of blood were withdrawn. The blood sample was spun at 8000 rpm. for 2 minutes and the plasma was removed. Creatinine assays were performed as described in Example 6.

rats [2] = experiment: Blood urea nitrogen (BUN) as measure of renal function (Example 8); format: in vivo; details: rat plasma, 8 mg/kg cisplatin, 9.9 mg/kg carboplatin, 19.6 mg/kg S-9168
Protocol: as §1, with “removed. BUN” for “removed. Creatinine”, “performed using the Sigma Blood Urea Nitrogen Kit (Sigma Diagnostics Co., St. Louis, Mo.; Cat. No. 535-A).” for “performed as described in Example 6.”

HCT-15 cells [3] = details: HCT-15, previously determined NCI values; cited from earlier work
OVCAR-3 cells [4] = details: OVCAR-3, previously determined NCI value; cited from earlier work
OVCAR-3 cells [5] = experiment: Cytotoxicity assay (sulforhodamine B), OVCAR-3; format: cell-based; details: OVCAR-3, Assay 6, 48 h drug exposure
Protocol: (§2) Methods. NCI-H460, HCT-15, OVCAR-3, CACO-2, MCF-7, HT-29, and HCT-116 cells were inoculated into 96 well microtiter plates in 100 microliters of medium at plating densities ranging from 5000 to 40000 cells/well, as given by NCI tables. After cell inoculation, the microtiter plates were incubated at 37° C., 5% CO2, 95% air, and 100% relative humidity for 24 hours. After 24 hours, 2 control plates of each cell line (time zero controls) were fixed by the addition of 30% trichloroacetic acid (TCA, final TCA concentration is 10% w/v). S-9168 was solubilized in saline. […] Additional 4, 10 fold, or ½ log serial dilutions were made to provide a total of five drug concentrations plus controls. Aliquots of 100 microliters of different drug dilutions were added to the appropriate microtiter wells already containing 100 microliters of medium. Following drug addition, the plates were incubated for an additional 48 hours under the same conditions provided above. The assays were terminated by the addition of cold TCA as described above for the time zero controls. The plates were then incubated at 4° C. for at least 60 minutes to fix the cells to the bottom of the plate. […] After staining, unbound dye was removed by washing five times with 1% acetic acid and the plates were allowed to air dry for 12-24 hours at room temperature. […]

HCT-116 cells [6] = details: HCT-116, previously determined NCI values; cited from earlier work
NCI-H460 cells [7] = details: NCI-H460, previously determined NCI values; cited from earlier work
HT-29 cells [8] = details: HT-29, previously determined NCI values; cited from earlier work
NCI-H460 cells [9] = experiment: Cytotoxicity assay (sulforhodamine B), NCI-H460; format: cell-based
Protocol: as §2

HCT-15 cells [10] = experiment: Cytotoxicity assay (sulforhodamine B), HCT-15; format: cell-based
Protocol: as §2

MCF-7 cells [11] = details: MCF-7, previously determined NCI values; cited from earlier work
HCT-116 cells [12] = experiment: Cytotoxicity assay (sulforhodamine B), HCT-116; format: cell-based; details: HCT-116, Assay 9, 48 h drug exposure
Protocol: as §2

HT-29 cells [13] = experiment: Cytotoxicity assay (sulforhodamine B), HT-29; format: cell-based; details: HT-29, Assay 8, 48 h drug exposure
Protocol: as §2

MCF-7 cells [14] = experiment: Cytotoxicity assay (sulforhodamine B), MCF-7; format: cell-based
Protocol: as §2

N.N.O=C([O-])C1(C(=O)[O-])CCC1.[Pt+2] [Carboplatin, cis-diamine[1,1-cyclobutnaedicarboxylate(2-)-O,O′-platinum(II)]
average creatinine level (rats [1]; day 4): 0.6659 mg/dL
average creatinine level (rats [1]; day 6): 0.7039 mg/dL
average creatinine level (rats [1]; day 8): 0.5402 mg/dL
average BUN level (rats [2]; day 4): 28.92 mg/dL
average BUN level (rats [2]; day 6): 21.59 mg/dL
average BUN level (rats [2]; day 8): 25.52 mg/dL
GI50 (log), NCI values (HCT-15 cells [3]): (−4.31) Pt mg/ml (log)
GI50 (log), NCI value (OVCAR-3 cells [4]): (−4.91) Pt mg/ml (log)
GI50 (log) (OVCAR-3 cells [5]): (−4.82) Pt mg/ml (log)
GI50 (log), NCI values (HCT-116 cells [6]): (−4.51) Pt mg/ml (log)
GI50 (log), NCI values (NCI-H460 cells [7]): (−5.21) Pt mg/ml (log)
GI50 (log), NCI values (HT-29 cells [8]): (−4.41) Pt mg/ml (log)
GI50 (log) (NCI-H460 cells [9]; NCI-H460, Assay 2, 48 h drug exposure): (−4.96) Pt mg/ml (log)
GI50 (log) (HCT-15 cells [10]; HCT-15, Assay 2, 48 h drug exposure): (−4.31) Pt mg/ml (log)
GI50 (log), NCI values (MCF-7 cells [11]): (−4.61) Pt mg/ml (log)

N.N.[Cl][Pt][Cl] [Cisplatin, cis-diaminedichloroplatinum(II)]
GI50 (log), NCI values (HCT-15 cells [3]): (−5.82) Pt mg/ml (log)
GI50 (log), NCI value (OVCAR-3 cells [4]): (−6.32) Pt mg/ml (log)
GI50 (log), NCI values (HCT-116 cells [6]): (−6.12) Pt mg/ml (log)
GI50 (log), NCI values (NCI-H460 cells [7]): (−6.92) Pt mg/ml (log)
GI50 (log) (HCT-116 cells [12]): (−6.13) Pt mg/ml (log)
GI50 (log) (HT-29 cells [13]): (−5.99) Pt mg/ml (log)
GI50 (log), NCI values (HT-29 cells [8]): (−5.82) Pt mg/ml (log)
GI50 (log) (NCI-H460 cells [9]; NCI-H460, Assay 1, 48 h drug exposure): (−6.98) Pt mg/ml (log)
GI50 (log) (HCT-15 cells [10]; HCT-15, Assay 5, 48 h drug exposure): (−6.65) Pt mg/ml (log)
GI50 (log) (MCF-7 cells [14]; MCF-7, Assay 2, 48 h drug exposure): (−5.10) Pt mg/ml (log)
GI50 (log) (MCF-7 cells [14]; MCF-7, Assay 7, 48 h drug exposure): (−6.14) Pt mg/ml (log)
GI50 (log), NCI values (MCF-7 cells [11]): (−6.22) Pt mg/ml (log)

— patent US20060142593A1, “Platinum compounds” (Sonus Pharmaceuticals, Inc., priority 2002, published 2006)
